Assay results: paper PMC13375149 (Journal of Raman spectroscopy : JRS, 2025)

Columns and labels:
[1] = GC-MS/MS quantification of B[a]P, PYR and TQE in tissues; format: in vivo, mice (C57BL6J)
[2] = SERS detection and time profile of PAHs/PAC in murine tissue extracts; format: in vivo, mice (C57BL6J)
[3] = 24, 48, 72 h post-injection, t(1) < 12.71, p > 0.05 as printed

Tissue accumulation relative to the other analyzed compounds ([1]; IP mixture, brain, kidney, liver, lung, 24-72 h post-exposure)	SMILES	Statistical significance of GC-MS/MS tissue concentrations [1, 3]	Detection in liver and kidney tissues using SERS and SEIRA ([2]; mice exposed to individual PAHs or PACs, Figs. S3 and S4)	Statistical significance of GC-MS/MS tissue concentrations ([1]; female, C57BL6J, mouse, in vivo)	Detection in liver and kidney tissues using SERS and SEIRA ([2]; mouse, in vivo)
–	c1cc2ccc3cccc4ccc(c1)c2c34 [PYR, pyrene]	statistically significant across all tissues and time points	successful detection	–	–
–	c1ccc2c(c1)cc1ccc3cccc4ccc2c1c34 [B[a]P, benzo(a)pyrene]	–	–	statistically significant except in lung at 72 hours post-injection	successful detection
lowest accumulation	O=C1c2ccccc2C(=O)c2cc3ccccc3cc21 [TQE, 5,12-Naphthacenequinone]	statistically significant across all tissues and time points	–	–	successful detection
